Assay results reported in ChEMBL document CHEMBL5316370, “Laeviganoids A-T, ent-Clerodane-Type Diterpenoids from Croton laevigatus” (2023).
The source made the active and inactive calls. No cut-off for these calls is given here.

Key:
[1] = tested on: RAW264.7; assay: Anti-inflammatory activity against IL-4/IL-13 stimulated mouse RAW264.7 cells assessed as inhibition of IL-10 secretion at 20 uM incubated for 48 hrs by ELISA method; assay type: functional, cell-based
[2] = tested on: RAW264.7; assay: Anti-inflammatory activity against IL-4/IL-13 stimulated mouse RAW264.7 cells assessed as upregulation of TNFalpha secretion at 20 uM incubated for 48 hrs by ELISA method; assay type: functional, cell-based
[3] = tested on: RAW264.7; assay: Anti-inflammatory activity against IL-4/IL-13 stimulated mouse RAW264.7 cells assessed as inhibition of IL-10 secretion at 5 to 20 uM incubated for 48 hrs by ELISA method relative to control; assay type: functional; details: dose 5-20 µM
[4] = tested on: RAW264.7; assay: Anti-inflammatory activity against IL-4/IL-13 stimulated mouse RAW264.7 cells assessed as upregulation of TNFalpha secretion at 5 to 20 uM incubated for 48 hrs by ELISA method relative to control; assay type: functional; details: dose 5-20 µM

Row | Structure (SMILES) | inhibition [1] | Activity [2] | inhibition (INH) [3] | Activity [4]
1 | COC(=O)[C@@H]1CC[C@]2(C)[C@H](CC[C@@H](O)[C@]2(C)OC)[C@@]1(C)CC(=O)c1ccoc1 | Active | Active | – | –
2 | C/C(=C\CO)CC[C@@]1(C)[C@H](C)CC[C@@]2(C)C(CO)=CCC[C@H]12 | Active | Active | >40% | >40%
3 | C[C@]1(C[C@H](O)c2ccoc2)[C@H](CO)CC[C@]2(C)[C@@H]1CC[C@@H](O)[C@]2(C)O | Active | Active | – | –
4 | CC1=CC(=O)O[C@@H]1C[C@@]1(C)[C@H](C)CC[C@@]2(C)C(C)=CCC[C@H]12 | Active | – | – | –
5 | COC(=O)[C@@H]1CC[C@]2(C)[C@H](CC[C@@H](O)[C@]2(C)O)[C@@]1(C)CC(=O)c1ccoc1 | Active | Active | – | –
6 | C[C@]12C(=CC[C@]3(C)[C@@H]1CC[C@@H](O)[C@]3(C)O)C(=O)O[C@H](c1ccoc1)[C@H]2OC(=O)c1ccccc1 | Active | – | – | –
7 | CCO[C@@]1(C)[C@H](O)CC[C@@H]2[C@@](C)(CC(=O)c3ccoc3)[C@H](C)CC[C@]21C | Active | Active | >40% | >40%
8 | C[C@@H]1CC[C@]2(C)[C@H](CC[C@@H](O)[C@]2(C)O)[C@@]1(C)CCc1ccoc1 | Active | Active | – | –
9 | CC(=O)O[C@@H]1[C@@H](c2ccoc2)OC(=O)[C@@H]2CC[C@@]3(C)C(C)C(=O)CC[C@@H]3[C@@]12C (stereo partly drawn) | Active | – | – | –
10 | C=C1[C@H](O)CC[C@@H]2[C@@](C)(C[C@H](O)c3ccoc3)[C@H](C)CC[C@@]12C | Active | – | – | –
11 | CC1=CC(=O)O[C@@H]1C[C@@]1(C)[C@H](C)CC[C@@]2(C)C(C)=CC(=O)C[C@H]12 | Active | – | – | –
12 | C[C@]12C[C@@H](c3ccoc3)OC(=O)[C@@H]1CC[C@]1(C)[C@@H]2CCC(=O)[C@@]1(C)O | Active | – | – | –
13 | C[C@@H]1CC[C@]2(C)[C@H](CCC(=O)[C@H]2C)[C@@]1(C)CCc1ccoc1 | Active | Active | – | –
14 | C[C@@H]1CC[C@]2(C)[C@H](CC[C@@H](O)[C@]2(C)O)[C@@]1(C)CC(=O)c1ccoc1 | Active | – | – | –
15 | CC1=CCC[C@@H]2[C@@]3(C)C[C@@H](c4ccoc4)OC(=O)[C@@H]3CC[C@@]12C | Active | – | – | –
16 | CO[C@@]1(C)[C@H](O)CC[C@@H]2[C@@]3(C)[C@H](OC(=O)c4ccccc4)[C@@H](c4ccoc4)OC(=O)[C@@H]3CC[C@]21C | Active | Active | >40% | >40%
17 | CC(=O)O[C@@H]1[C@@H](c2ccoc2)OC(=O)[C@@H]2CC[C@]3(C)[C@H](CC[C@@H](O)[C@]3(C)O)[C@@]12C | Active | – | – | –
18 | CC1=CC(=O)O[C@H]1C[C@@]1(C)[C@H](C)CC[C@@]2(C)C(C)=CCC[C@H]12 | Active | – | – | –
19 | C[C@@H]1CC[C@]2(C)[C@H](CCC(=O)[C@H]2C)[C@@]1(C)CC(=O)c1ccoc1 | Active | – | – | –
20 | C[C@]12C[C@@H](c3ccoc3)OC(=O)[C@@H]1CC[C@]1(C)[C@@H]2CCC(=O)[C@]1(C)O | Active | – | – | –
21 | C[C@@H]1C(=O)CC[C@@H]2[C@@](C)(CCc3ccoc3)[C@H](CO)CC[C@]21C | Active | – | – | –
22 | C[C@]1(CCc2ccoc2)[C@H](CO)CC[C@]2(C)[C@@H]1CC[C@@H](O)[C@]2(C)O | Active | – | – | –
23 | C[C@]12C[C@@H](c3ccoc3)OC(=O)[C@@H]1CC[C@]1(C)[C@@H]2CC[C@H](Cl)[C@@]1(C)O | Active | – | – | –
24 | C=C1[C@H](O)CC[C@@H]2[C@@](C)(CC(=O)c3ccoc3)[C@H](C)CC[C@@]12C | Active | – | – | –
25 | C[C@]12[C@H](OC(=O)c3ccccc3)[C@@H](c3ccoc3)OC(=O)[C@@H]1CC[C@]1(C)[C@@H]2CC[C@@H](O)[C@]1(C)O | Active | – | – | –
26 | CO[C@@]1(C)[C@H](O)CC[C@@H]2[C@@](C)(C[C@H](O)c3ccoc3)[C@H](C)CC[C@]21C | Active | Active | >40% | >40%
